Values quoted from earlier work, collected in PubChem BioAssay AID1259409 (Chemical Carcinogenesis Research Information System (CCRIS), 2018).
Where “and” joins values, the source holds several entries; their conditions need not be identical. Identical values can stand only once.

Test system: rodent chemically induced tumor inhibition, incidence and multiplicity
Assay: CCRIS tumor inhibitor studies
Conditions: Species: RAT

COc1ccc2c(c1)c(CC(=O)O)c(C)n2C(=O)c1ccc(Cl)cc1
tumour outcome (control, treated, inhibition, significance) (Carcinogen: DIETHYLNITROSAMINE, 55-18-5, N-METHYL-N-NITROSOUREA, 684-93-5, N-BUTYL-N-(4-HYDROXYBUTYL)NITROSAMINE, 3817-11-6, 1,2-DIM, Carcinogen: DIETHYLNITROSAMINE, 55-18-5, N-METHYL-N-NITROSOUREA, 684-93-5, N-BUTYL-N-(4-HYDROXYBUTYL)NITROSAMINE, 3817-11-6, 1,2-DIM, Dose [Inhibitor]: 0, 20 PPM IN DRINKING WATER FOR 23 WK BEGINNING 1 WK POST CARCINOGEN TREATMENT (STUDY DURATION: 28 WK), Route [Inhibitor]: ORAL, Strain/Sex: F344/MALE, Target Tissue: Type of Lesion: LARGE INTESTINE: ADENOCARCINOMA, Dose [Carcinogen]: 100 MG/KG BW DEN ONCE, 20 MG/KG BW MNU ONCE ON DAYS 6,9, AND 12, 0.05% BBN IN DRINKING WATER FOR FIRST TWO WK, 40 MG/KG, Dose [Carcinogen]: 100 MG/KG BW DEN ONCE, 20 MG/KG BW MNU ONCE ON DAYS 6,9, AND 12, 0.05% BBN IN DRINKING WATER FOR FIRST TWO WK, 40 MG/KG, Promoter: NONE USED): 2/20 (10%), 0/19 (0%), 100%, not significant
tumour outcome (control, treated, inhibition, significance) (Carcinogen: DIETHYLNITROSAMINE, 55-18-5, N-METHYL-N-NITROSOUREA, 684-93-5, N-BUTYL-N-(4-HYDROXYBUTYL)NITROSAMINE, 3817-11-6, 1,2-DIM, Carcinogen: DIETHYLNITROSAMINE, 55-18-5, N-METHYL-N-NITROSOUREA, 684-93-5, N-BUTYL-N-(4-HYDROXYBUTYL)NITROSAMINE, 3817-11-6, 1,2-DIM, Dose [Inhibitor]: 0, 20 PPM IN DRINKING WATER FOR 23 WK BEGINNING 1 WK POST CARCINOGEN TREATMENT (STUDY DURATION: 28 WK), Route [Inhibitor]: ORAL, Strain/Sex: F344/MALE, Target Tissue: Type of Lesion: LARGE INTESTINE: ADENOMA, Dose [Carcinogen]: 100 MG/KG BW DEN ONCE, 20 MG/KG BW MNU ONCE ON DAYS 6,9, AND 12, 0.05% BBN IN DRINKING WATER FOR FIRST TWO WK, 40 MG/KG, Dose [Carcinogen]: 100 MG/KG BW DEN ONCE, 20 MG/KG BW MNU ONCE ON DAYS 6,9, AND 12, 0.05% BBN IN DRINKING WATER FOR FIRST TWO WK, 40 MG/KG, Promoter: NONE USED): 3/20 (15%), 0/19 (0%), 100%, not significant
tumour outcome (control, treated, inhibition, significance) (Carcinogen: DIETHYLNITROSAMINE, 55-18-5, N-METHYL-N-NITROSOUREA, 684-93-5, N-BUTYL-N-(4-HYDROXYBUTYL)NITROSAMINE, 3817-11-6, 1,2-DIM, Carcinogen: DIETHYLNITROSAMINE, 55-18-5, N-METHYL-N-NITROSOUREA, 684-93-5, N-BUTYL-N-(4-HYDROXYBUTYL)NITROSAMINE, 3817-11-6, 1,2-DIM, Dose [Inhibitor]: 0, 20 PPM IN DRINKING WATER FOR 23 WK BEGINNING 1 WK POST CARCINOGEN TREATMENT (STUDY DURATION: 28 WK), Route [Inhibitor]: ORAL, Strain/Sex: F344/MALE, Target Tissue: Type of Lesion: LIVER: HEPATOCELLULAR ADENOMA, HYPERPLASTIC NODULE, Dose [Carcinogen]: 100 MG/KG BW DEN ONCE, 20 MG/KG BW MNU ONCE ON DAYS 6,9, AND 12, 0.05% BBN IN DRINKING WATER FOR FIRST TWO WK, 40 MG/KG, Dose [Carcinogen]: 100 MG/KG BW DEN ONCE, 20 MG/KG BW MNU ONCE ON DAYS 6,9, AND 12, 0.05% BBN IN DRINKING WATER FOR FIRST TWO WK, 40 MG/KG, Promoter: NONE USED): 2/20 (10%), 7/19 (37%), -270%, not significant
outcome (Carcinogen: DIETHYLNITROSAMINE, 55-18-5, N-METHYL-N-NITROSOUREA, 684-93-5, N-BUTYL-N-(4-HYDROXYBUTYL)NITROSAMINE, 3817-11-6, 1,2-DIM, Carcinogen: DIETHYLNITROSAMINE, 55-18-5, N-METHYL-N-NITROSOUREA, 684-93-5, N-BUTYL-N-(4-HYDROXYBUTYL)NITROSAMINE, 3817-11-6, 1,2-DIM, Dose [Inhibitor]: 0, 20 PPM IN DRINKING WATER FOR 23 WK BEGINNING 1 WK POST CARCINOGEN TREATMENT (STUDY DURATION: 28 WK), Route [Inhibitor]: ORAL, Strain/Sex: F344/MALE, Target Tissue: Type of Lesion: LIVER: HEPATOCELLULAR ADENOMA, Dose [Carcinogen]: 100 MG/KG BW DEN ONCE, 20 MG/KG BW MNU ONCE ON DAYS 6,9, AND 12, 0.05% BBN IN DRINKING WATER FOR FIRST TWO WK, 40 MG/KG, Dose [Carcinogen]: 100 MG/KG BW DEN ONCE, 20 MG/KG BW MNU ONCE ON DAYS 6,9, AND 12, 0.05% BBN IN DRINKING WATER FOR FIRST TWO WK, 40 MG/KG, Promoter: NONE): 0/20 (0%), 0/19 (0%), 0%, not significant
tumour outcome (control, treated, inhibition, significance) (Carcinogen: DIETHYLNITROSAMINE, 55-18-5, N-METHYL-N-NITROSOUREA, 684-93-5, N-BUTYL-N-(4-HYDROXYBUTYL)NITROSAMINE, 3817-11-6, 1,2-DIM, Carcinogen: DIETHYLNITROSAMINE, 55-18-5, N-METHYL-N-NITROSOUREA, 684-93-5, N-BUTYL-N-(4-HYDROXYBUTYL)NITROSAMINE, 3817-11-6, 1,2-DIM, Dose [Inhibitor]: 0, 20 PPM IN DRINKING WATER FOR 23 WK BEGINNING 1 WK POST CARCINOGEN TREATMENT (STUDY DURATION: 28 WK), Route [Inhibitor]: ORAL, Strain/Sex: F344/MALE, Target Tissue: Type of Lesion: LUNG: ADENOCARCINOMA, Dose [Carcinogen]: 100 MG/KG BW DEN ONCE, 20 MG/KG BW MNU ONCE ON DAYS 6,9, AND 12, 0.05% BBN IN DRINKING WATER FOR FIRST TWO WK, 40 MG/KG, Dose [Carcinogen]: 100 MG/KG BW DEN ONCE, 20 MG/KG BW MNU ONCE ON DAYS 6,9, AND 12, 0.05% BBN IN DRINKING WATER FOR FIRST TWO WK, 40 MG/KG, Promoter: NONE UESD): 1/20 (5%), 0/19 (0%), 100%, not significant
tumour outcome (control, treated, inhibition, significance) (Carcinogen: DIETHYLNITROSAMINE, 55-18-5, N-METHYL-N-NITROSOUREA, 684-93-5, N-BUTYL-N-(4-HYDROXYBUTYL)NITROSAMINE, 3817-11-6, 1,2-DIM, Carcinogen: DIETHYLNITROSAMINE, 55-18-5, N-METHYL-N-NITROSOUREA, 684-93-5, N-BUTYL-N-(4-HYDROXYBUTYL)NITROSAMINE, 3817-11-6, 1,2-DIM, Dose [Inhibitor]: 0, 20 PPM IN DRINKING WATER FOR 23 WK BEGINNING 1 WK POST CARCINOGEN TREATMENT (STUDY DURATION: 28 WK), Route [Inhibitor]: ORAL, Strain/Sex: F344/MALE, Target Tissue: Type of Lesion: LUNG: ADENOMA, Dose [Carcinogen]: 100 MG/KG BW DEN ONCE, 20 MG/KG BW MNU ONCE ON DAYS 6,9, AND 12, 0.05% BBN IN DRINKING WATER FOR FIRST TWO WK, 40 MG/KG, Dose [Carcinogen]: 100 MG/KG BW DEN ONCE, 20 MG/KG BW MNU ONCE ON DAYS 6,9, AND 12, 0.05% BBN IN DRINKING WATER FOR FIRST TWO WK, 40 MG/KG, Promoter: NONE USED): 8/20 (40%), 2/19 (11%), 73%, p<0.05
tumour outcome (control, treated, inhibition, significance) (Carcinogen: DIETHYLNITROSAMINE, 55-18-5, N-METHYL-N-NITROSOUREA, 684-93-5, N-BUTYL-N-(4-HYDROXYBUTYL)NITROSAMINE, 3817-11-6, 1,2-DIM, Carcinogen: DIETHYLNITROSAMINE, 55-18-5, N-METHYL-N-NITROSOUREA, 684-93-5, N-BUTYL-N-(4-HYDROXYBUTYL)NITROSAMINE, 3817-11-6, 1,2-DIM, Dose [Inhibitor]: 0, 20 PPM IN DRINKING WATER FOR 23 WK BEGINNING 1 WK POST CARCINOGEN TREATMENT (STUDY DURATION: 28 WK), Route [Inhibitor]: ORAL, Strain/Sex: F344/MALE, Target Tissue: Type of Lesion: THYROID: FOLLICULAR ADENOMA, Dose [Carcinogen]: 100 MG/KG BW DEN ONCE, 20 MG/KG BW MNU ONCE ON DAYS 6,9, AND 12, 0.05% BBN IN DRINKING WATER FOR FIRST TWO WK, 40 MG/KG, Dose [Carcinogen]: 100 MG/KG BW DEN ONCE, 20 MG/KG BW MNU ONCE ON DAYS 6,9, AND 12, 0.05% BBN IN DRINKING WATER FOR FIRST TWO WK, 40 MG/KG, Promoter: NONE USED): 6/20 (30%), 2/19 (11%), 63%, not significant and 1/20 (5%), 1/19 (5%), 0%, not significant
tumour outcome (control, treated, inhibition, significance) (Carcinogen: DIETHYLNITROSAMINE, 55-18-5, N-METHYL-N-NITROSOUREA;684-93-5, N-BUTYL-N-(4-HYDROXYBUTYL)NITROSAMINE, 3817-11-6, 1,2-DIME, Carcinogen: DIETHYLNITROSAMINE, 55-18-5, N-METHYL-N-NITROSOUREA;684-93-5, N-BUTYL-N-(4-HYDROXYBUTYL)NITROSAMINE, 3817-11-6, 1,2-DIME, Dose [Inhibitor]: 0, 20 PPM IN DRINKING WATER FOR 23 WK BEGINNING 1 WK POST CARCINOGEN TREATMENT (STUDY DURATION: 28 WK), Route [Inhibitor]: ORAL, Strain/Sex: F344/MALE, Target Tissue: Type of Lesion: SMALL INTESTINE: ADENOMA, Dose [Carcinogen]: 100 MG/KG BW DEN ONCE, 20 MG/KG BW MNU ONCE ON DAYS 6,9, AND 12, 0.05% BBN IN DRINKING WATER FOR FIRST TWO WK, 40 MG/KG, Dose [Carcinogen]: 100 MG/KG BW DEN ONCE, 20 MG/KG BW MNU ONCE ON DAYS 6,9, AND 12, 0.05% BBN IN DRINKING WATER FOR FIRST TWO WK, 40 MG/KG, Promoter: NONE USED): 5/20 (25%), 0/19 (0%), 100%, p<0.05
tumour outcome (control, treated, inhibition, significance) (Carcinogen: DIETHYLNITROSAMINE, 55-18-5, N-METHYL-N-NITROSOUREA, 684-93-5, N-METHYL-N-(4-HYDROXYBUTYL)NITROSAMINE, 3817-11-6, 1,2-DI, Carcinogen: DIETHYLNITROSAMINE, 55-18-5, N-METHYL-N-NITROSOUREA, 684-93-5, N-METHYL-N-(4-HYDROXYBUTYL)NITROSAMINE, 3817-11-6, 1,2-DI, Dose [Inhibitor]: 0, 20 PPM IN DRINKING WATER FOR 23 WK BEGINNING 1 WK POST CARCINOGEN TREATMENT (STUDY DURATION: 28 WK), Route [Inhibitor]: ORAL, Strain/Sex: F344/MALE, Target Tissue: Type of Lesion: SMALL INTESTINE: ADENOCARCINOMA, Dose [Carcinogen]: 100 MG/KG BW DEN ONCE, 20 MG/KG BW MNU ONCE ON DAYS 6,9, AND 12, 0.05% BBN IN DRINKING WATER FOR FIRST TWO WK, 40 MG/KG, Dose [Carcinogen]: 100 MG/KG BW DEN ONCE, 20 MG/KG BW MNU ONCE ON DAYS 6,9, AND 12, 0.05% BBN IN DRINKING WATER FOR FIRST TWO WK, 40 MG/KG, Promoter: NONE USED): 2/20 (10%), 0/19 (0%), 100%, not significant
tumour outcome (control, treated, inhibition, significance) (Carcinogen: METHYLAZOXYMETHANOL, 590-96-5, Dose [Inhibitor]: 7.5 MG/KG BW DAILY FOR 3 WK STARTING 27 WK AFTER THE START OF CARCINOGEN TREATMENT (STUDY DURATION: 30 WK), Route [Inhibitor]: INTRARECTAL, Strain/Sex: DONRYU/MALE, Target Tissue: Type of Lesion: LARGE INTESTINE: ADENOCARCINOMA, Dose [Carcinogen]: 20 MG/KG BW 1/WK FOR 6 WK, Promoter: NONE USED): 19/23 (83%), 15/30 (50%), 40%, p<0.05
